The assay addresses T1, JAK3 (recombinant human kinase domain; h-jak3(810-1124)) (Homo sapiens, UniProt P52333).
T1 construct: h-jak3(810- 1124)-sf9-c; made in house; host or cells: Sf9 insect cells
Description: Determination of IC50 of Janus Kinase (JAK) inhibition: JAK3, radioactive end-point assay with 33P-ATP. In kind it is biochemical. The note with it: JAK3 kinase domain; ATP 1.5 uM, peptide 50 uM, 20 minutes, room temperature, 10% DMSO; read-out: Ic50 h-jak3(810-1124)-sf9-c:no additive.

The text below walks through data of patent US20140155376A1, “PYRROLOPYRAZINE KINASE INHIBITORS” (Hoffmann-La Roche Inc., priority 2010, published 2014).

T1 sequence (P52333 810-1124): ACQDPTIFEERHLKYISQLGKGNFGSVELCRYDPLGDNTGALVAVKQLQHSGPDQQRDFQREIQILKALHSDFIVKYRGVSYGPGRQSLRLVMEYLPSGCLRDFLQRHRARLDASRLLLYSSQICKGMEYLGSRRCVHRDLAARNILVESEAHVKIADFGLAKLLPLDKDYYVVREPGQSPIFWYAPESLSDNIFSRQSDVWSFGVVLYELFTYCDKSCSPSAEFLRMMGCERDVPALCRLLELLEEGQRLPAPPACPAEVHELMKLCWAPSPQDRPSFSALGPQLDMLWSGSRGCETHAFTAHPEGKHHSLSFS

Regarding `C[C@H](NC(=O)c1c[nH]c2ncc(-c3ccc(C(=O)NCC#N)s3)nc12)C(C)(C)C` [Example I-172, 2-[5-(Cyanomethyl-carbamoyl)-thiophen-2-yl]-5H-pyrrolo[2,3-b]pyrazine-7-carboxylic acid ((S)-1,2,2-trimethyl-propyl)-amide], the IC50 (in general, the concentration that inhibits the measured activity by half) was 0.14 nM.

Consider `C[C@H](NC(=O)c1c[nH]c2ncc(-c3ccc(C(=O)NCCS(N)(=O)=O)s3)nc12)C(C)(C)C` [Example I-173, 2-[5-(2-Sulfamoyl-ethylcarbamoyl)-thiophen-2-yl]-5H-pyrrolo[2,3-b]pyrazine-7-carboxylic acid ((S)-1,2,2-trimethyl-propyl)-amide], for which the IC50 stood at 0.2 nM.

In the case of `CC(Cn1ccnc1)NC(=O)c1ccc(-c2cnc3[nH]cc(C(=O)N[C@@H](C)C(C)(C)C)c3n2)s1` (stereo partly drawn) [Example I-174, 2-[5-(2-Imidazol-1-yl-1-methyl-ethylcarbamoyl)-thiophen-2-yl]-5H-pyrrolo[2,3-b]pyrazine-7-carboxylic acid ((S)-1,2,2-trimethyl-propyl)-amide], the half-inhibitory concentration (IC50) worked out at 0.22 nM.

`C[C@H](NC(=O)c1c[nH]c2ncc(-c3ccc(C(=O)N4CCC(C)(O)CC4)s3)nc12)C(C)(C)C` [Example I-175, 2-[5-(4-Hydroxy-4-methyl-piperidine-1-carbonyl)-thiophen-2-yl]-5H-pyrrolo[2,3-b]pyrazine-7-carboxylic acid ((S)-1,2,2-trimethyl-propyl)-amide]: the IC50 worked out at 0.1 nM.

For the compound `CC(Cc1ccccn1)NC(=O)c1ccc(-c2cnc3[nH]cc(C(=O)N[C@@H](C)C(C)(C)C)c3n2)s1` (stereo partly drawn) [Example I-176, 2-[5-(1-Methyl-2-pyridin-2-yl-ethylcarbamoyl)-thiophen-2-yl]-5H-pyrrolo[2,3-b]pyrazine-7-carboxylic acid ((S)-1,2,2-trimethyl-propyl)-amide], the IC50 came to 0.46 nM.

On to `C[C@H](NC(=O)c1c[nH]c2ncc(-c3ccc(C(=O)N4C5CCC4CC5)s3)nc12)C(C)(C)C` [Example I-177, 2-[5-(7-Aza-bicyclo[2.2.1]heptane-7-carbonyl)-thiophen-2-yl]-5H-pyrrolo[2,3-b]pyrazine-7-carboxylic acid ((S)-1,2,2-trimethyl-propyl)-amide], for which the IC50 turned out to be 0.32 nM.

On to `C[C@H](NC(=O)c1c[nH]c2ncc(-c3ccc(C(=O)N4CC(C#N)C4)s3)nc12)C(C)(C)C` [Example I-178, 2-[5-(3-Cyano-azetidine-1-carbonyl)-thiophen-2-yl]-5H-pyrrolo[2,3-b]pyrazine-7-carboxylic acid ((S)-1,2,2-trimethyl-propyl)-amide], for which the half-maximal inhibitory concentration (IC50) was found to be 0.32 nM.

`C[C@H](NC(=O)c1c[nH]c2ncc(-c3ccc(C(=O)N4CC(C(N)=O)C4)s3)nc12)C(C)(C)C` [Example I-179, 2-[5-(3-Carbamoyl-azetidine-1-carbonyl)-thiophen-2-yl]-5H-pyrrolo[2,3-b]pyrazine-7-carboxylic acid ((S)-1,2,2-trimethyl-propyl)-amide]: the IC50 is 0.32 nM.

With `C[C@H](NC(=O)c1c[nH]c2ncc(-c3ccc(C(=O)N4CCC4)s3)nc12)C(C)(C)C` [Example I-180, 2-[5-(Azetidine-1-carbonyl)-thiophen-2-yl]-5H-pyrrolo[2,3-b]pyrazine-7-carboxylic acid ((S)-1,2,2-trimethyl-propyl)-amide], the half-inhibitory concentration (IC50) came out at 0.32 nM.

`CC1CCCC(C)N1C(=O)c1ccc(-c2cnc3[nH]cc(C(=O)N[C@@H](C)C(C)(C)C)c3n2)s1` (stereo partly drawn) [Example I-181, 2-[5-(2,6-Dimethyl-piperidine-1-carbonyl)-thiophen-2-yl]-5H-pyrrolo[2,3-b]pyrazine-7-carboxylic acid ((S)-1,2,2-trimethyl-propyl)-amide]: the half-maximal inhibitory concentration (IC50) amounted to 0.62 nM.

On to `C[C@H](NC(=O)c1c[nH]c2ncc(-c3ccc(C(=O)N4CCC(C(=O)O)CC4)s3)nc12)C(C)(C)C` [Example I-182, 1-{5-[7-((S)-1,2,2-Trimethyl-propylcarbamoyl)-5H-pyrrolo[2,3-b]pyrazin-2-yl]-thiophene-2-carbonyl}-piperidine-4-carboxylic acid], for which the IC50 was found to be 0.32 nM.

For the compound `CC(=O)NC1CCN(C(=O)c2ccc(-c3cnc4[nH]cc(C(=O)N[C@@H](C)C(C)(C)C)c4n3)s2)CC1` [Example I-183, 2-[5-[4-Acetylamino-piperidine-1-carbonyl)-thiophen-2-yl]-5H-pyrrolo[2,3-b]pyrazine-7-carboxylic acid ((S)-1,2,2-trimethyl-propyl)-amide], the IC50 turned out to be 0.32 nM.

Take `Cc1ccc(CNC(=O)c2ccc(-c3cnc4[nH]cc(C(=O)N[C@@H](C)C(C)(C)C)c4n3)s2)cc1` [Example I-184, 2-[5-(4-Methyl-benzylcarbamoyl)-thiophen-2-yl]-5H-pyrrolo[2,3-b]pyrazine-7-carboxylic acid ((S)-1,2,2-trimethyl-propyl)-amide]: the IC50 amounted to 0.32 nM.

On to `C[C@H](NC(=O)c1c[nH]c2ncc(-c3ccc(C(=O)NCc4ccc(F)cc4)s3)nc12)C(C)(C)C` [Example I-185, 2-[5-(4-Fluoro-benzylcarbamoyl)-thiophen-2-yl]-5H-pyrrolo[2,3-b]pyrazine-7-carboxylic acid ((S)-1,2,2-trimethyl-propyl)-amide], for which the IC50 was 0.32 nM.

Turning to `C[C@H](NC(=O)c1c[nH]c2ncc(-c3ccc(C(=O)NCc4cccc(Cl)c4Cl)s3)nc12)C(C)(C)C` [Example I-186, 2-[5-(2,3-Dichloro-benzylcarbamoyl)-thiophen-2-yl]-5H-pyrrolo[2,3-b]pyrazine-7-carboxylic acid ((S)-1,2,2-trimethyl-propyl)-amide], the half-inhibitory concentration (IC50) was 0.46 nM.

`Cc1ccccc1CNC(=O)c1ccc(-c2cnc3[nH]cc(C(=O)N[C@@H](C)C(C)(C)C)c3n2)s1` [Example I-187, 2-[5-(2-Methyl-benzylcarbamoyl)-thiophen-2-yl]-5H-pyrrolo[2,3-b]pyrazine-7-carboxylic acid ((S)-1,2,2-trimethyl-propyl)-amide]: the 50% inhibitory concentration (IC50) came to 0.46 nM.

`C[C@H](NC(=O)c1c[nH]c2ncc(-c3ccc(C(=O)NCc4c(F)cccc4F)s3)nc12)C(C)(C)C` [Example I-188, 2-[5-(2,6-Difluoro-benzylcarbamoyl)-thiophen-2-yl]-5H-pyrrolo[2,3-b]pyrazine-7-carboxylic acid ((S)-1,2,2-trimethyl-propyl)-amide]: the IC50 is 0.41 nM.

Turning to `C[C@H](NC(=O)c1c[nH]c2ncc(-c3ccc(C(=O)NCc4c(F)cccc4Cl)s3)nc12)C(C)(C)C` [Example I-189, 2-[5-(2-Chloro-6-fluoro-benzylcarbamoyl)-thiophen-2-yl]-5H-pyrrolo[2,3-b]pyrazine-7-carboxylic acid ((S)-1,2,2-trimethyl-propyl)-amide], the half-inhibitory concentration (IC50) turned out to be 0.6 nM.

`CC1CCCCC1NC(=O)c1ccc(-c2cnc3[nH]cc(C(=O)N[C@@H](C)C(C)(C)C)c3n2)s1` (stereo partly drawn) [Example I-190, 2-[5-(2-Methyl-cyclohexyl-carbamoyl)-thiophen-2-yl]-5H-pyrrolo[2,3-b]pyrazine-7-carboxylic acid ((S)-1,2,2-trimethyl-propyl)-amide]: the half-inhibitory concentration (IC50) was found to be 0.69 nM.

With `C[C@H](NC(=O)c1c[nH]c2ncc(-c3ccc(C(=O)N[C@H]4C[C@@H]4c4ccccc4)s3)nc12)C(C)(C)C` [Example I-191, 2-[5-((1S,2R)-2-Phenyl-cyclopropyl-carbamoyl)-thiophen-2-yl]-5H-pyrrolo[2,3-b]pyrazine-7-carboxylic acid ((S)-1,2,2-trimethyl-propyl)-amide], the IC50 stood at 0.55 nM.

Regarding `Cc1csc(CNC(=O)c2ccc(-c3cnc4[nH]cc(C(=O)N[C@@H](C)C(C)(C)C)c4n3)s2)c1` [Example I-192, 2-{5-[(4-Methyl-thiophen-2-ylmethyl)-carbamoyl]-thiophen-2-yl}-5H-pyrrolo[2,3-b]pyrazine-7-carboxylic acid ((S)-1,2,2-trimethyl-propyl)-amide], the IC50 was 0.4 nM.

On to `Cc1ccc(CNC(=O)c2ccc(-c3cnc4[nH]cc(C(=O)N[C@@H](C)C(C)(C)C)c4n3)s2)o1` [Example I-193, 2-{5-[(5-Methyl-furan-2-ylmethyl)-carbamoyl]-thiophen-2-yl}-5H-pyrrolo[2,3-b]pyrazine-7-carboxylic acid ((S)-1,2,2-trimethyl-propyl)-amide], for which the concentration for half-maximal inhibition (IC50) came out at 0.42 nM.

On to `C[C@H](NC(=O)c1c[nH]c2ncc(-c3ccc(C(=O)NC45CC6CC(CC(C6)C4)C5)s3)nc12)C(C)(C)C` [Example I-194, 2-[5-(Adamantan-1-ylcarbamoyl)-thiophen-2-yl]-5H-pyrrolo[2,3-b]pyrazine-7-carboxylic acid ((S)-1,2,2-trimethyl-propyl)-amide], for which the IC50 was 1.34 nM.

For `CC(NC(=O)c1ccc(-c2cnc3[nH]cc(C(=O)N[C@@H](C)C(C)(C)C)c3n2)s1)c1ccc(F)cc1` (stereo partly drawn) [Example I-195, 2-{5-[1-(4-Fluoro-phenyl)-ethylcarbamoyl]-thiophen-2-yl}-5H-pyrrolo[2,3-b]pyrazine-7-carboxylic acid ((S)-1,2,2-trimethyl-propyl)-amide], the IC50 was found to be 0.46 nM.

For `CON(C)C(=O)c1ccc(-c2cnc3[nH]cc(C(=O)N[C@@H](C)C(C)(C)C)c3n2)s1` [Example I-196, 2-[5-(Methoxy-methyl-carbamoyl)-thiophen-2-yl]-5H-pyrrolo[2,3-b]pyrazine-7-carboxylic acid ((S)-1,2,2-trimethyl-propyl)-amide], the IC50 was 0.47 nM.

Regarding `CONC(=O)c1ccc(-c2cnc3[nH]cc(C(=O)N[C@@H](C)C(C)(C)C)c3n2)s1` [Example I-197, 2-(5-Methoxy-carbamoyl-thiophen-2-yl)-5H-pyrrolo[2,3-b]pyrazine-7-carboxylic acid ((S)-1,2,2-trimethyl-propyl)-amide], the half-maximal inhibitory concentration (IC50) was determined as 0.32 nM.

`C#CCNC(=O)c1ccc(-c2cnc3[nH]cc(C(=O)N[C@@H](C)C(C)(C)C)c3n2)s1` [Example I-198, 2-(5-Prop-2-ynylcarbamoyl-thiophen-2-yl)-5H-pyrrolo[2,3-b]pyrazine-7-carboxylic acid ((S)-1,2,2-trimethyl-propyl)-amide]: the IC50 was 0.54 nM.
